Reference: US20260325685A1, “Radiopharmaceutical Compositions Targeting Carbonic Anhydrase IX and Uses Thereof” (RayzeBio, Inc., priority 2023, published 2026)
Read-outs that look alike come from different tables or passages of the source.

How the values were obtained:
[1] = biological target: T1, human CA-IX (Homo sapiens, UniProt Q16790); experiment: Surface Plasmon Resonance (SPR) binding kinetics to recombinant human CA-IX (Biacore 8K, single-cycle kinetics, 1:1 binding model); settings: for Kd: SPR, 25° C., pH 7.4, read-out: CAIX KD
T1 construct: purchased Acro CA9-H82E3
Procedure, shortened: (§1)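 Kinetics are measured at 25° C against streptavidin-captured CA-IX or CA-XII (1200-1800 RU) in PBS-P+ buffer, pH 7.4, containing 1% DMSO. Nine analyte concentrations span 100-0.39 nM, with 1200 s dissociation.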

[2] = biological target: T2, human CA-XII (Homo sapiens, UniProt O43570); experiment: Surface Plasmon Resonance (SPR) binding kinetics to recombinant human CA-XII (Biacore 8K, single-cycle kinetics, 1:1 binding model); settings: pH 7.4, read-out: CAXII KD
T2 construct: purchased Creative BioMart CA12-261H
Procedure, shortened: as §1

T2 sequence (O43570 25-354): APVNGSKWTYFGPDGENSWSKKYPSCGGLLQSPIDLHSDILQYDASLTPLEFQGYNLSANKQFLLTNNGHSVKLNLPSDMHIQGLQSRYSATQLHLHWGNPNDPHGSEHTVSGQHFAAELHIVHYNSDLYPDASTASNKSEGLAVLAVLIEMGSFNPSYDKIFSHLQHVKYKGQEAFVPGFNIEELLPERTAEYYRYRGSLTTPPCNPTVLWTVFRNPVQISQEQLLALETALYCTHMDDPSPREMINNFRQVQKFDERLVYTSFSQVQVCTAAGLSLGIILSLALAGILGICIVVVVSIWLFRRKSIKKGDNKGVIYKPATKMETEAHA

| Kd ([1]; Chelated Metal: None) [nM] | Ratio (CAXII/CAIX) ([1]; KD ratio CAXII/CAIX, Chelated Metal: None) | Kd ([2]; Chelated Metal: None, 25° C.) [nM] | Compound | Kd ([1]; Chelated Metal: Lu-175) [nM] | Kd ([2]; Chelated Metal: Lu-175, 25° C.) [nM] |
| --- | --- | --- | --- | --- | --- |
| – | – | – | CC(CCCC(=O)N1CCC(C(N)=O)(C(=O)NCC(=O)N2CCN(C(=O)CN3CCN(CC(=O)O)CCN(CC(=O)O)CCN(CC(=O)O)CC3)C[C@H]2C(=O)NCCn2cc(COc3ccc4nc(S(N)(=O)=O)sc4c3)nn2)CC1)(c1ccc(O)cc1)c1ccc(O)cc1.[Lu+3] [Compound 107.49] | < 1 | > 10 |
| – | – | – | CC(CCC(=O)N[C@@H](CC(=O)N[C@@H](CC(=O)N1CCN(C(=O)CN2CCN(CC(=O)O)CCN(CC(=O)O)CCN(CC(=O)O)CC2)C[C@H]1C(=O)NCCn1cc(C23CC(C(=O)Nc4nnc(S(N)(=O)=O)s4)(C2)C3)nn1)C(=O)O)C(N)=O)(c1ccc(O)cc1)c1ccc(O)cc1.[Lu+3] [Compound 107.50] | < 1 | > 10 |
| – | – | – | CC(CCCC(=O)N1CCC(CN)(C(=O)NCC(=O)N2CCN(C(=O)CN3CCN(CC(=O)O)CCN(CC(=O)O)CCN(CC(=O)O)CC3)C[C@@H]2C(=O)NCCn2cc(C34CC(C(=O)Nc5nnc(S(N)(=O)=O)s5)(C3)C4)nn2)CC1)(c1ccc(O)cc1)c1ccc(O)cc1.[Lu+3] [Compound 107.51] | 1 to 2.5 | > 10 |
| – | – | – | NC(=O)C1(C(=O)NCC(=O)N2CCN(C(=O)CN3CCN(CC(=O)O)CCN(CC(=O)O)CCN(CC(=O)O)CC3)C[C@H]2C(=O)NCCn2cc(C34CC(C(=O)Nc5nnc(S(N)(=O)=O)s5)(C3)C4)nn2)CCN(C(=O)CCn2nc(-c3ccc(O)cc3)c3ccc(O)cc32)CC1.[Lu+3] [Compound 107.52] | 1 to 2.5 | > 10 |
| < 1 | **** (50 < ****) | 2.5 to 10 | CC(CCCC(=O)N1CCC(C(N)=O)(C(=O)NCC(=O)N2CCN(C(=O)CN3CCN(CC(=O)O)CCN(CC(=O)O)CCN(CC(=O)O)CC3)C[C@H]2C(=O)NCCn2cc(C34CC(c5cn6nc(S(N)(=O)=O)sc6n5)(C3)C4)nn2)CC1)(c1ccc(O)cc1)c1ccc(O)cc1 [Compound 107.53] | – | – |
| – | – | – | CCCCNc1c(F)c(S(N)(=O)=O)c(F)c(F)c1S(=O)(=O)CCOCc1cn(CCNC(=O)[C@H]2CN(C(=O)CN3CCN(CC(=O)O)CCN(CC(=O)O)CCN(CC(=O)O)CC3)CCN2C(=O)C[C@H](NC(=O)[C@@H]2COCCN2C(=O)CCCc2ccc(O)cc2)C(=O)O)nn1.[Lu+3] [Compound 107.54] | 2.5 to 10 | > 10 |
| – | – | – | CC(CCC(=O)N[C@@H](CC(=O)N[C@@H](CNC(=O)N1CCN(C(=O)CN2CCN(CC(=O)O)CCN(CC(=O)O)CCN(CC(=O)O)CC2)C[C@H]1C(=O)NCCn1cc(C23CC(C(=O)Nc4nnc(S(N)(=O)=O)s4)(C2)C3)nn1)C(=O)O)C(=O)O)(c1ccc(O)cc1)c1ccc(O)cc1.[Lu+3] [Compound 107.55] | < 1 | 2.5 to 10 |
| – | – | – | CC(CCNC(=O)N1CCC(C(N)=O)(C(=O)NCC(=O)N2CCN(C(=O)CN3CCN(CC(=O)O)CCN(CC(=O)O)CCN(CC(=O)O)CC3)C[C@H]2C(=O)NCCn2cc(C34CC(C(=O)Nc5nnc(S(N)(=O)=O)s5)(C3)C4)nn2)CC1)(c1ccc(O)cc1)c1ccc(O)cc1.[Lu+3] [Compound 107.56] | 1 to 2.5 | > 10 |
| – | – | – | CC(CCOC(=O)N1CCC(C(N)=O)(C(=O)NCC(=O)N2CCN(C(=O)CN3CCN(CC(=O)O)CCN(CC(=O)O)CCN(CC(=O)O)CC3)C[C@H]2C(=O)NCCn2cc(C34CC(C(=O)Nc5nnc(S(N)(=O)=O)s5)(C3)C4)nn2)CC1)(c1ccc(O)cc1)c1ccc(O)cc1.[Lu+3] [Compound 107.57] | 1 to 2.5 | > 10 |
| – | – | – | CC(CCCC(=O)N1CCC(C(N)=O)(C(=O)NCC(=O)N2CCN(C(=O)CN3CCN(CC(=O)O)CCN(CC(=O)O)CCN(CC(=O)O)CC3)C[C@H]2C(=O)NCCn2nnc(C34CC(C(=O)Nc5nnc(S(N)(=O)=O)s5)(C3)C4)c2C(=O)O)CC1)(c1ccc(O)cc1)c1ccc(O)cc1.[Lu+3] [Compound 107.58] | < 1 | > 10 |
| – | – | – | CC(CCCC(=O)N1CCC(C(N)=O)(C(=O)NCC(=O)N2CCN(C(=O)CN3CCN(CC(=O)O)CCN(CC(=O)O)CCN(CC(=O)O)CC3)C[C@@H]2C(=O)NCCn2nnc(C34CC(C(=O)Nc5nnc(S(N)(=O)=O)s5)(C3)C4)c2C(=O)O)CC1)(c1ccc(O)cc1)c1ccc(O)cc1.[Lu+3] [Compound 107.59] | < 1 | > 10 |
